These results are taken from patent US9808527B2, “Methods and compositions for treating HIV infections” (priority 2006, dated 2017).

What all share (assay): microbe, parasite or virus in culture
Common to all, as to type: cell-based

For one experiment, the system named is HIV-1GRL98065r-40P. As to conditions: for IC50: Human immunodeficiency virus 1, MT4, read-out: IC50 against HIV-1GRL98065r-40P; for fold change of IC50, HIV-1GRL98065r-40P: compared to HIV-1NL4-3. Here is the method:
Drug susceptibility assay. The susceptibility of HIV-1LAI, HIV-2EHO, HIV-2ROD, to various drugs and the cytotoxicity of those drugs was determined by using the MTT assay. Briefly, MT-2 cells (2×10^4/mL) were exposed to 100 TCID50s (50% tissue culture infectious doses) of HIV-1LAI, HIV-2EHO, or HIV-2ROD in the presence or absence of various concentrations of drugs in 96-well microculture plates and were incubated at 37° C. for 7 days. After 100 μL of the medium was removed from each well, 3-(4,5-dimethylthiazol-2-yl)-2,5-diphenyltetrazolium bromide (MTT) solution (10 μL, 7.5 mg/mL in phosphate-buffered saline) was added to each well in the plate, followed by incubation at 37° C. for 4 hours. […] All assays were performed in duplicate or triplicate. To determine the sensitivity of HIV-1Ba-L, HIV-1ERS104 pre, and clinical multi-drug-resistant HIV-1 isolates and different subtypes of HIV-1 isolates to drugs, phytohemagglutinin-activated peripheral blood mononuclear cells (PHA-PBMs; 10^6/mL) were exposed to 50 TCID50 (50% tissue infectious dose) of each HIV-1 isolate and cultured in the presence or absence of various concentrations of drugs in 10-fold serial dilutions in 96-well microtiter culture plates. To determine the drug susceptibility of certain laboratory HIV-1 strains (HIV-1NL4-3), MT-4 cells were used as target cells. MT-4 cells (10^5/mL) were exposed to 100 TCID50 of wild type HIV-1NL4-3 and PI-resistant HIV-1NL4-3 in the presence or absence of various concentrations of drugs and were incubated at 37° C. On day 7 of culture, the supernatant was harvested and the amount of p24 Gag protein was determined by using a fully automated chemiluminescent enzyme immunoassay system (Lumipulse F; Fujirebio Inc., Tokyo, Japan) (22). […] All assays were performed in duplicate or triplicate. […]

For the next experiment, the system named is HIV-1MDR/B (X4). As to conditions: for IC50: Human immunodeficiency virus 1, read-out: IC50 against HIV-1MDR/B (X4); for fold change of IC50, HIV-1MDR/B: compared to wild-type HIV-1ERS104pre. Here is the method:
(§1) Drug susceptibility assay. The susceptibility of HIV-1LAI, HIV-2EHO, HIV-2ROD, to various drugs and the cytotoxicity of those drugs was determined by using the MTT assay. Briefly, MT-2 cells (2×10^4/mL) were exposed to 100 TCID50s (50% tissue culture infectious doses) of HIV-1LAI, HIV-2EHO, or HIV-2ROD in the presence or absence of various concentrations of drugs in 96-well microculture plates and were incubated at 37° C. for 7 days. After 100 μL of the medium was removed from each well, 3-(4,5-dimethylthiazol-2-yl)-2,5-diphenyltetrazolium bromide (MTT) solution (10 μL, 7.5 mg/mL in phosphate-buffered saline) was added to each well in the plate, followed by incubation at 37° C. for 4 hours. […] All assays were performed in duplicate or triplicate. To determine the sensitivity of HIV-1Ba-L, HIV-1ERS104 pre, and clinical multi-drug-resistant HIV-1 isolates and different subtypes of HIV-1 isolates to drugs, phytohemagglutinin-activated peripheral blood mononuclear cells (PHA-PBMs; 10^6/mL) were exposed to 50 TCID50 (50% tissue infectious dose) of each HIV-1 isolate and cultured in the presence or absence of various concentrations of drugs in 10-fold serial dilutions in 96-well microtiter culture plates. To determine the drug susceptibility of certain laboratory HIV-1 strains (HIV-1NL4-3), MT-4 cells were used as target cells. MT-4 cells (10^5/mL) were exposed to 100 TCID50 of wild type HIV-1NL4-3 and PI-resistant HIV-1NL4-3 in the presence or absence of various concentrations of drugs and were incubated at 37° C. On day 7 of culture, the supernatant was harvested and the amount of p24 Gag protein was determined by using a fully automated chemiluminescent enzyme immunoassay system (Lumipulse F; Fujirebio Inc., Tokyo, Japan) (22). […] All assays were performed in duplicate or triplicate.
(§2) HIV-1ERS104pre served as a source of wild-type HIV-1. The IC50 values were determined by using PHA-PBMs as target cells and the inhibition of p24 Gag protein production by each drug was used as an endpoint.

The test system of the next experiment is HIV-1MDR/C (X4). The note with it: for IC50: Human immunodeficiency virus 1, read-out: IC50 against HIV-1MDR/C (X4); for fold change of IC50, HIV-1MDR/C: compared to wild-type HIV-1ERS104pre. The protocol:
as §1, §2

In another experiment the test system is HIV-1MDR/G (X4). As to conditions: for IC50: Human immunodeficiency virus 1, read-out: IC50 against HIV-1MDR/G (X4); for fold change of IC50, HIV-1MDR/G: compared to wild-type HIV-1ERS104pre. Here is the method:
as §1, §2

The subject of another experiment is HIV-1MDR/JSL (R5). As to conditions: for IC50: Human immunodeficiency virus 1, read-out: IC50 against HIV-1MDR/JSL (R5); for fold change of IC50, HIV-1MDR/JSL: compared to wild-type HIV-1ERS104pre. The protocol:
as §1, §2

The test system of a further experiment is HIV-1MDR/MM (R5). The note with it: for IC50: Human immunodeficiency virus 1, read-out: IC50 against HIV-1MDR/MM (R5); for fold change of IC50, HIV-1MDR/MM: compared to wild-type HIV-1ERS104pre. The protocol:
as §1, §2

In a further experiment the test system is HIV-1MDR/TM (X4). As to conditions: for IC50: Human immunodeficiency virus 1, read-out: IC50 against HIV-1MDR/TM (X4); for fold change of IC50, HIV-1MDR/TM: compared to wild-type HIV-1ERS104pre. The protocol:
as §1, §2

Each structure is given as a SMILES string.

Take `CC(C)(C)NC(=O)[C@@H]1C[C@@H]2CCCC[C@@H]2CN1C[C@@H](O)[C@H](Cc1ccccc1)NC(=O)[C@H](CC(N)=O)NC(=O)c1ccc2ccccc2n1` [SQV, Saquinavir]: in the experiment with HIV-1GRL98065r-40P, the IC50 stood at 0.032 µM and the “fold change of IC50, HIV-1GRL98065r-40P” value is given as 5. Further, in the experiment with HIV-1MDR/B (X4), the IC50 was 0.27 ± 0.06 µM and the “fold change of IC50, HIV-1MDR/B” value is 34. In the experiment on HIV-1MDR/C (X4), the IC50 came to 0.035 ± 0.004 µM and the “fold change of IC50, HIV-1MDR/C” value is given as 4. In the experiment on HIV-1MDR/G (X4), the IC50 is 0.033 ± 0.005 µM and the “fold change of IC50, HIV-1MDR/G” value worked out at 4. Besides, in the experiment with HIV-1MDR/JSL (R5), the IC50 turned out to be 0.29 ± 0.05 µM and the “fold change of IC50, HIV-1MDR/JSL” value is listed as 36. Moreover, in the experiment on HIV-1MDR/MM (R5), the IC50 is 0.14 ± 0.04 µM and the “fold change of IC50, HIV-1MDR/MM” value is recorded as 18. In the experiment on HIV-1MDR/TM (X4), the IC50 turned out to be 0.18 ± 0.05 µM and the “fold change of IC50, HIV-1MDR/TM” value was found to be 23.
As for `CC(C)CN(CC(O)C(Cc1ccccc1)NC(=O)OC1COC2OCCC12)S(=O)(=O)c1ccc2c(c1)OCO2` (centres unmarked) [GRL-98065], in the experiment with HIV-1GRL98065r-40P, the IC50 came to 0.18 µM and the “fold change of IC50, HIV-1GRL98065r-40P” value is reported as 600. In the experiment with HIV-1MDR/B (X4), the IC50 amounted to 0.0039 ± 0.0005 µM and the “fold change of IC50, HIV-1MDR/B” value was found to be 8. Further, in the experiment with HIV-1MDR/C (X4), the IC50 is 0.0027 ± 0.0003 µM and the “fold change of IC50, HIV-1MDR/C” value is reported as 5. Also, in the experiment with HIV-1MDR/G (X4), the IC50 stood at 0.0034 ± 0.0003 µM and the “fold change of IC50, HIV-1MDR/G” value is 7. Further, in the experiment on HIV-1MDR/JSL (R5), the IC50 amounted to 0.006 µM and the “fold change of IC50, HIV-1MDR/JSL” value came to 12. In the experiment on HIV-1MDR/MM (R5), the IC50 stood at 0.0038 ± 0.0006 µM and the “fold change of IC50, HIV-1MDR/MM” value is given as 8. Besides, in the experiment on HIV-1MDR/TM (X4), the IC50 was 0.0032 ± 0.0006 µM and the “fold change of IC50, HIV-1MDR/TM” value came out at 6.
Consider `CC(C)CN(C[C@@H](O)[C@H](Cc1ccccc1)NC(=O)O[C@H]1CCOC1)S(=O)(=O)c1ccc(N)cc1` [APV, Amprenavir], for which the IC50 in the experiment with HIV-1GRL98065r-40P is > 1 µM; in the experiment with HIV-1MDR/B (X4), 0.36 ± 0.09 µM; with HIV-1MDR/C (X4), 0.25 ± 0.05 µM; with HIV-1MDR/G (X4), 0.32 ± 0.02 µM; with HIV-1MDR/JSL (R5), 0.43 ± 0.05 µM; with HIV-1MDR/MM (R5) it was 0.48 ± 0.09 µM. The IC50 in the experiment with HIV-1MDR/TM (X4) came out at 0.3 ± 0.04 µM.
Regarding `COC(=O)N[C@H](C(=O)N[C@@H](Cc1ccccc1)[C@@H](O)CN(Cc1ccc(-c2ccccn2)cc1)NC(=O)[C@@H](NC(=O)OC)C(C)(C)C)C(C)(C)C` [ATV, Atazanavir], in the experiment with HIV-1GRL98065r-40P, the IC50 was 0.011 µM and the “fold change of IC50, HIV-1GRL98065r-40P” value is given as 3. For the same molecule, in the experiment with HIV-1MDR/B (X4), the IC50 is 0.25 ± 0.003 µM and the “fold change of IC50, HIV-1MDR/B” value was found to be 66. Further, in the experiment with HIV-1MDR/C (X4), the IC50 turned out to be 0.021 ± 0.006 µM and the “fold change of IC50, HIV-1MDR/C” value came to 6. In addition, in the experiment on HIV-1MDR/G (X4), the IC50 is 0.032 ± 0.002 µM and the “fold change of IC50, HIV-1MDR/G” value was 8. Further, in the experiment with HIV-1MDR/JSL (R5), the IC50 worked out at 0.54 ± 0.2 µM and the “fold change of IC50, HIV-1MDR/JSL” value was found to be 142. Moreover, in the experiment on HIV-1MDR/MM (R5), the IC50 was found to be 0.045 ± 0.0001 µM and the “fold change of IC50, HIV-1MDR/MM” value is reported as 12. Besides, in the experiment with HIV-1MDR/TM (X4), the IC50 came out at 0.038 ± 0.009 µM and the “fold change of IC50, HIV-1MDR/TM” value turned out to be 10.
Regarding `CC(C)(C)NC(=O)[C@@H]1CN(Cc2cccnc2)CCN1C[C@@H](O)C[C@@H](Cc1ccccc1)C(=O)N[C@H]1c2ccccc2C[C@H]1O` [IDV, indinavir], the IC50 in the experiment with HIV-1GRL98065r-40P is 0.28 µM; in the experiment on HIV-1MDR/B (X4), > 1 µM; in the experiment with HIV-1MDR/C (X4) it was > 1 µM; in the experiment on HIV-1MDR/G (X4), 0.64 ± 0.11 µM; in the experiment with HIV-1MDR/JSL (R5), > 1 µM; in the experiment with HIV-1MDR/MM (R5), > 1 µM. Moreover, the IC50 in the experiment with HIV-1MDR/TM (X4) was > 1 µM.
